# How the values were obtained:
# [1] = test system: [Sar^9, Met(O2)^11]substance P-induced hind paw tapping in gerbils; assay: [Sar^9, Met(O2)^11]substance P-induced tapping test; type: in vivo, gerbil; conditions: Meriones unguiculatus, % inhibition at 0.3 mg/kg scoring
# Description: The activity of the compounds of this invention against CNS disorder is determined by [Sar^9, Met(O2)^11]substance P-induced tapping test in gerbils. More specifically, gerbils are lightly anesthetized with ether and the skull surface is exposed. [Sar^9, Met(O2)^11]substance P or vehicle (5 μl) are administered directly into the lateral ventricles via a 25 gauge needle inserted 3.5 mm below lambda. Following injection, gerbils are placed in 2 l beaker individually and monitored for repetitive hind paw tapping. Some compounds prepared in the following Examples were tested in accordance with these testing methods.
# [2] = molecular target: T1, substance P receptor sites in human IM-9 cells (Homo sapiens, UniProt P25103); assay: IM-9 binding assay (inhibition of [^3H]SP binding); conditions: [^3H]SP binding to human IM-9 cells
# T1 construct: endogenous in cells; host or cells: human IM-9 cells (whole cells)
# Description: The activity of the compounds of the present invention, as substance P antagonists, is determined by their ability to inhibit the binding of substance P at its 30 receptor sites in CHO-cells which reveal NK1 receptor or IM-9 cells employing radioactive ligands. The substance P antagonist activity of the herein described compounds is evaluated by using the standard assay procedure described by D. G. Payan et al., as reported in the The Journal of Immunology . 133, 3260 (1984). This method essentially involves determining the concentration of the individual compound required to reduce by 50% the amount of radiolabelled substance P ligands at their receptor sites in said isolated cow tissues or IM-9 cells, thereby affording characteristic IC50 values for each compound tested. More specifically, inhibition of [^3H]SP binding to human IM-9 cells by compounds are determined in assay buffer (50 mM Tris-HCl (pH 7.4), 1 mM MnCl2, 0.02% bovine serum albumin, bacitracin (40 μg/ml), leupeptin (4 μg/ml), chymostatin (2 μg/ml) and phosphoramidon (30 μg/ml)). […] Nonspecific binding is defined as the radioactivity remaining in the presence of 1 μM SP. The filters are placed into tubes and counted using liquid scintillation counter.
# [3] = molecular target: T2, Ca^2+ channel in rat heart membrane preparation (Rattus norvegicus, UniProt P22002); assay: verapamil binding study ([^3H]desmethoxyverapamil); conditions: read-out: verapamil binding study (Ca^2+ channel binding affinity)
# T2 construct: from tissue; host or cells: rat heart membrane preparation
# Description: The adverse effect on Ca^2+ channel binding affinity is determined by verapamil binding study in rat heart membrane preparation. More specifically, verapamil binding study is performed as previously described by Reynolds et al., (J. Pharmacol. Exp. Ther. 237, 731, 1986). Briefly, incubations are initiated by the addition of tissue to tubes containing 0.25 nM [^3H]desmethoxyverapamil and various concentrations of compounds (total volume; 1 ml). Nonspecific binding is defined as radioligand binding remaining in the presence of 3-10 μM methoxyverapamil.
# T2 sequence (P22002 whole entry, other chains not shown): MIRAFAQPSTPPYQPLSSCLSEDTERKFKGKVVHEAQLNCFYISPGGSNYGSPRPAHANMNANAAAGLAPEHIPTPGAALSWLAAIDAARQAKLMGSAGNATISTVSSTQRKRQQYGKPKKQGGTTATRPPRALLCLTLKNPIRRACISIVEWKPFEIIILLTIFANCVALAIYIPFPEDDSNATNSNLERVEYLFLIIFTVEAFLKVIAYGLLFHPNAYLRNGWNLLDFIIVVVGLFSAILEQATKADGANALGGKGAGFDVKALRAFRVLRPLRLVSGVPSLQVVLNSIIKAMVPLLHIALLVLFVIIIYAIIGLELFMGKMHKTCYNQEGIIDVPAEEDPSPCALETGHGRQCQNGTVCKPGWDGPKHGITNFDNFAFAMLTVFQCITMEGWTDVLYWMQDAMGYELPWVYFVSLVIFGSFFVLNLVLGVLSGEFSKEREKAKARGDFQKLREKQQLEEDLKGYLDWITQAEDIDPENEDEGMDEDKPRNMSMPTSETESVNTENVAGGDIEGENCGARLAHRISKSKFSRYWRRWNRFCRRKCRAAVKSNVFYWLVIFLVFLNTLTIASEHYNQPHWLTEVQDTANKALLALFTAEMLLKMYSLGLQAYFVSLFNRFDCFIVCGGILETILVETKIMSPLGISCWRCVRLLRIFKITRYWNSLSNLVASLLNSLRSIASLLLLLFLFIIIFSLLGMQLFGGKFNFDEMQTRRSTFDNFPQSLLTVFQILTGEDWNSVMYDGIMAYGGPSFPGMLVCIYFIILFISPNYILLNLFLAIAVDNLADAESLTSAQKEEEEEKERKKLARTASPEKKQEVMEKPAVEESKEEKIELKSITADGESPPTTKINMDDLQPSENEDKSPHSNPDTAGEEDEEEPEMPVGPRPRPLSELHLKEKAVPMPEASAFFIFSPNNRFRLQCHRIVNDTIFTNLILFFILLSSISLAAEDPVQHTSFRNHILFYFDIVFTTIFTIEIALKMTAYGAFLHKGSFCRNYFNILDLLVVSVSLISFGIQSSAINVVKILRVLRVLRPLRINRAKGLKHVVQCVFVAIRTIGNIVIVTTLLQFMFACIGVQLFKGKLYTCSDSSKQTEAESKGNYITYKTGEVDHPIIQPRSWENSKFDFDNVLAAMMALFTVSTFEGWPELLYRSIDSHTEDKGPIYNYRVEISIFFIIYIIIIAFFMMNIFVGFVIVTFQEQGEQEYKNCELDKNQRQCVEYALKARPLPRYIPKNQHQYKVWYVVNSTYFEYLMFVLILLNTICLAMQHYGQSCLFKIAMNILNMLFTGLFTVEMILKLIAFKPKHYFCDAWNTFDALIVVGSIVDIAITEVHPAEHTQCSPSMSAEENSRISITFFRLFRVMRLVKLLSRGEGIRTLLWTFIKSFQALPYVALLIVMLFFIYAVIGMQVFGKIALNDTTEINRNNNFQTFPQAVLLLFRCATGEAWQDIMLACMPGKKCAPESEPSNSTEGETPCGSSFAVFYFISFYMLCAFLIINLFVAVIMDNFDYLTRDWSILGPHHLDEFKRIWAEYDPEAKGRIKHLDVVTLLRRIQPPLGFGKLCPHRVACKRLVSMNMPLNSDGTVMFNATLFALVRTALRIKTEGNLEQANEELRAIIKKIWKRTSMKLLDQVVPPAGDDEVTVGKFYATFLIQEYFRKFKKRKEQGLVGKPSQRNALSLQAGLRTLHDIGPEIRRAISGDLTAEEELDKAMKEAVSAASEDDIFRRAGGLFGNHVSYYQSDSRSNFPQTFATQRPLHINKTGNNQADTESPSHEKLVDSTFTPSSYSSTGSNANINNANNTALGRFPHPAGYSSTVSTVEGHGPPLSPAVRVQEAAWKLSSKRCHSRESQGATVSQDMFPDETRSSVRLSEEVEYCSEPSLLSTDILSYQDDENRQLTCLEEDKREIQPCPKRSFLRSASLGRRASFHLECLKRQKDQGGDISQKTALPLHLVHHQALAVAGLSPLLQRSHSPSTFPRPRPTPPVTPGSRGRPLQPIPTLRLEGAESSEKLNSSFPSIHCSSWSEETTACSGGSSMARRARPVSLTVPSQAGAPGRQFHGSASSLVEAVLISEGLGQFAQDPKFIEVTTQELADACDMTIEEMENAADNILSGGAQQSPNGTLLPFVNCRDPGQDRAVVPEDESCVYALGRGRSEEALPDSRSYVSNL
# T2 sequence (P54290 25-944 partner limits assumed, other chains not shown): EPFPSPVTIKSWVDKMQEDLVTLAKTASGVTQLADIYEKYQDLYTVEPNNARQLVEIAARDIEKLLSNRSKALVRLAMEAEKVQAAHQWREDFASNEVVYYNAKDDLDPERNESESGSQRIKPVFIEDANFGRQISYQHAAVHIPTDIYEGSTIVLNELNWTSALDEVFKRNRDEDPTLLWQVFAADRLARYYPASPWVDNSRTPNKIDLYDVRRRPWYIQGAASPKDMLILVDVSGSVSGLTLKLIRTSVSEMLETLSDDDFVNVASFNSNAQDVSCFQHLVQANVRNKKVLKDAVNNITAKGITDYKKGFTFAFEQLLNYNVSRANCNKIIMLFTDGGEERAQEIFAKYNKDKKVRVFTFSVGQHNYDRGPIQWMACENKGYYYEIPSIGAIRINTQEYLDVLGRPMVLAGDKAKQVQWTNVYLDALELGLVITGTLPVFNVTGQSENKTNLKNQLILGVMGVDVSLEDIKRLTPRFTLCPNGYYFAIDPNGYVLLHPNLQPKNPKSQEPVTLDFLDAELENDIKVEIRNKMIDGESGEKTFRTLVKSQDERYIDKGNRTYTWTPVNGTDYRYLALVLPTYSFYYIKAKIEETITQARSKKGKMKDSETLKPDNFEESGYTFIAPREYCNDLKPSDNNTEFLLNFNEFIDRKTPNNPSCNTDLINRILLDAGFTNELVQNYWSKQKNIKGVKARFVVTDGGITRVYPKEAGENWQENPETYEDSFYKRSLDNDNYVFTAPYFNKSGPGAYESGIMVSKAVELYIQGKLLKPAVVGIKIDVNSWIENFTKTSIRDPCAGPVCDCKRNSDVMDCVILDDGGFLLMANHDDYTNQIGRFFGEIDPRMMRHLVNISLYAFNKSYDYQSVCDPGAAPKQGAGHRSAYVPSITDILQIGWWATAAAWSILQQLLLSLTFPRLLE
# T2 sequence (P54290 945-1091 partner limits assumed, other chains not shown): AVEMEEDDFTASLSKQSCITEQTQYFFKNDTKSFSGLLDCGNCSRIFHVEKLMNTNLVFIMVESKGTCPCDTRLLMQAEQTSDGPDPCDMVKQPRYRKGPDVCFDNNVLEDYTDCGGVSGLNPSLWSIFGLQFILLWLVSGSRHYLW
# T1 sequence (P25103 whole entry): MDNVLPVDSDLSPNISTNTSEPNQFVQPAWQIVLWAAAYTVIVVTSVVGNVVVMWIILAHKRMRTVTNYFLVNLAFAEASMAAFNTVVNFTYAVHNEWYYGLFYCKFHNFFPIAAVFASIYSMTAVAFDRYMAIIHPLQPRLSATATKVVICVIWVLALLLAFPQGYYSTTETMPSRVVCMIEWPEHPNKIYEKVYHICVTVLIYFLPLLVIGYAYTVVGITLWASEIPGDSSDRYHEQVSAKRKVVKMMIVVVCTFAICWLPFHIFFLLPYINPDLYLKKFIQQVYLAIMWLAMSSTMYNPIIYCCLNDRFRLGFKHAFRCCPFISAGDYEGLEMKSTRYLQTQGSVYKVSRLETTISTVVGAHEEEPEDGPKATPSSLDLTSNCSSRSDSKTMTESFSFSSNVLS
compound,measurement,setting,value
COc1cc2ccc(=O)n(C)c2cc1CN[C@H]1CCCN[C@H]1c1ccccc1.Cl.Cl,melting point,,260 to 263 °C
COc1cc2c(cc1CN[C@H]1CCCN[C@H]1c1ccccc1)CCC(=O)N2C.Cl.Cl,melting point,,243 to 244 °C
COc1cc2ccc(=O)n(C)c2cc1CN[C@H]1C2CCN(CC2)[C@H]1C(c1ccccc1)c1ccccc1,melting point,,125 to 128 °C
COc1cc2c(cc1CN[C@H]1CCCN[C@H]1c1ccccc1)N(C)C(=O)CCC2.Cl.Cl,melting point,,236 to 238 °C
COc1cc2c(cc1CN[C@H]1CCCN[C@H]1c1ccccc1)N(C)C(=S)CC2.Cl.Cl,melting point,,245 to 246 °C
COc1cc2c(cc1CN[C@H]1CCCN[C@H]1c1ccccc1)C(C(F)(F)F)CC(=O)N2C.Cl.Cl (stereo partly drawn),melting point,,225 to 256 °C
CN1C(=O)CCc2cc(OCC(F)(F)F)c(CN[C@H]3CCCN[C@H]3c3ccccc3)cc21.Cl.Cl,melting point,,239 to 240 °C
COc1cc2c(cc1CN[C@H]1CCCN[C@H]1c1ccccc1)N(C(C)C)C(=O)CC2.Cl.Cl,melting point,,257 to 260 °C
COc1cc2c(cc1CN[C@H]1CCCN[C@H]1c1ccccc1)N(C)C(=O)OC2.Cl.Cl,melting point,,235 to 237 °C
COc1cc2c(cc1CN[C@H]1C3CCN(CC3)[C@H]1C(c1ccccc1)c1ccccc1)N(C)C(=O)CC2,melting point,,136 to 139 °C
"COc1cc2c(cc1CN[C@H]1CCCN[C@H]1c1ccccc1)N(C)C(=O)CC2.Cl.Cl [Compound 21, (2S,3S)-3-(6-Methoxy-1-methyl-2-oxo-1,2,3,4-tetrahydroquinolin-7-yl)methylamino-2-phenylpiperidine dihydrochloride]",inhibition at 0.3 mg/kg,[1],52%
same,IC50,[2],< 0.1 nM
same,melting point,,265 to 268 °C
same,IC50,[3],> 3000 nM
CN1C(=O)CCc2cc(OC(F)F)c(CN[C@H]3CCCN[C@H]3c3ccccc3)cc21.Cl.Cl,melting point,,238 to 240 °C
COc1cc2c(cc1CN[C@H]1CCCN[C@H]1c1ccccc1)C(C)(C)C(=S)N2C.Cl.Cl,melting point,,234 to 236 °C
COc1cc2c(cc1CN[C@H]1CCCN[C@H]1c1ccccc1)N(C)C(=O)SC2.Cl.Cl,melting point,,252 to 254 °C
COc1cc2c(cc1CN[C@H]1CCCN[C@H]1c1ccccc1)CCC(=S)N2C.Cl.Cl,melting point,,219 to 221 °C
